Experimental data: patent EP3315130A1, “HYALURONIC ACID COMPOSITION INCLUDING MEPIVACAINE” (Laboratoires Vivacy, priority 2016, dated 2018)

Tests used:
ecchymose = assay: Clinical evaluation of occurrence and severity of ecchymosis after injection of hyaluronic acid compositions; design: species or system patients; conditions: human, in vivo
Description: (§1) Deux types de composition aqueuse à base d'acide hyaluronique (concentration 20 mg/g) sont préparés.
(§2) Toutes les compositions sont issues d'un mélange monophasique tel que celui décrit dans la demande de brevet WO 2009/071697 au nom de la demanderesse, et comprennent du mannitol (concentration 35 mg/g).
(§3) Deux groupes A et B de 64 patients chacun sont formés (128 patients au total).
(§4) Le groupe B est injecté au niveau du sillon naso-génien au moyen de la composition aqueuse à base d'acide hyaluronique comprenant du mannitol et de la mépivacaïne

oedème = assay: Clinical evaluation of occurrence and severity of oedema after injection of hyaluronic acid compositions; design: species or system patients; conditions: human, in vivo
Description: as §1, §2, §3, §4

For mépïvacaïne, which “Ecchymose - Aucune” value (ecchymose) is on record?
Its value is 42.

And the “Ecchymose - Légère ou modérée” value (ecchymose)?
The value was 22.

What about the “Ecchymose - Sévère” value (ecchymose) of the same substance?
The value was 0.

What about the “OEdème - Aucun” value (oedème) of the same substance?
Its value is 63.

And the “OEdème - Léger ou modéré” value (oedème)?
Its value is 1.

What about the “OEdème - Sévère” value (oedème) of the same substance?
The value was 0.
